In ChEMBL document CHEMBL1201862, “PubChem BioAssay data set” (2004):
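Tested at 5 concentrations; 48 h exposure; 96-well plates; endpoints linearly interpolated, else capped at highest concentration. GI50 = concentration required for 50% inhibition of growth.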 Activity calls are given as the source filed them. Rule as the data show it: active = GI50 up to about 1.1 µM and inactive = higher.

How the values were obtained:
Assay in all cases: growth of human tumour cells (NCI), 48 h
HCC 2998 = tested on: HCC 2998
NCI-H522 = tested on: NCI-H522
NCI-H226 = tested on: NCI-H226
SW-620 = tested on: SW-620
SNB-75 = tested on: SNB-75
TK-10 = tested on: TK-10
HCT-15 = tested on: HCT-15
A549 = tested on: A549
SR = tested on: SR
UACC-257 = tested on: UACC-257
BT-549 = tested on: BT-549
HL-60 = tested on: HL-60
SN12C = tested on: SN12C
HT-29 = tested on: HT-29
NCI-H23 = tested on: NCI-H23
OVCAR-5 = tested on: OVCAR-5
RPMI-8226 = tested on: RPMI-8226
NCI/ADR-RES = tested on: NCI/ADR-RES
HOP-62 = tested on: HOP-62
K562 = tested on: K562
A498 = tested on: A498
SK-MEL-28 = tested on: SK-MEL-28
OVCAR-4 = tested on: OVCAR-4
Hs-578T = tested on: Hs-578T
CAKI-1 = tested on: CAKI-1
MDA-N = tested on: MDA-N
MDA-MB-435 = tested on: MDA-MB-435
ACHN = tested on: ACHN
LOX IMVI = tested on: LOX IMVI
SF-539 = tested on: SF-539
SK-MEL-5 = tested on: SK-MEL-5
SF-295 = tested on: SF-295
Malme-3M = tested on: Malme-3M
SF-268 = tested on: SF-268
U-251 = tested on: U-251
COLO 205 = tested on: COLO 205
786-0 = tested on: 786-0
MCF7 = tested on: MCF7
PC-3 = tested on: PC-3
DU-145 = tested on: DU-145
OVCAR-3 = tested on: OVCAR-3
IGROV-1 = tested on: IGROV-1
KM12 = tested on: KM12
UACC-62 = tested on: UACC-62
MOLT-4 = tested on: MOLT-4
RXF 393 = tested on: RXF 393
OVCAR-8 = tested on: OVCAR-8
SNB-19 = tested on: SNB-19
SK-MEL-2 = tested on: SK-MEL-2
M14 = tested on: M14
UO-31 = tested on: UO-31
HOP-92 = tested on: HOP-92
CCRF-CEM = tested on: CCRF-CEM
HCT-116 = tested on: HCT-116
MDA-MB-231 = tested on: MDA-MB-231
NCI-H460 = tested on: NCI-H460
EKVX = tested on: EKVX
SK-OV-3 = tested on: SK-OV-3

## CC[C@@H](CCCC[C@@H]1CC[C@H]2CC(=O)C[C@@H]12)OC
HCC 2998
  GI50: > 100 µM (inactive)
NCI-H522
  GI50: > 100 µM (inactive)
NCI-H226
  GI50: > 100 µM (inactive)
SW-620
  GI50: > 100 µM (inactive)
SNB-75
  GI50: > 100 µM (inactive)
TK-10
  GI50: > 100 µM (inactive)
HCT-15
  GI50: > 100 µM
A549
  GI50: > 100 µM (inactive)
SR
  GI50: > 100 µM (inactive)
UACC-257
  GI50: 69.5 µM (inactive)
BT-549
  GI50: 66.7 µM (inactive)
HL-60
  GI50: 43.2 µM (inactive)
SN12C
  GI50: > 100 µM (inactive)
HT-29
  GI50: > 100 µM (inactive)
NCI-H23
  GI50: > 100 µM (inactive)
OVCAR-5
  GI50: > 100 µM (inactive)
RPMI-8226
  GI50: > 100 µM (inactive)
NCI/ADR-RES
  GI50: 99.5 µM (inactive)
HOP-62
  GI50: > 100 µM (inactive)
K562
  GI50: 30.8 µM (inactive)
A498
  GI50: > 100 µM (inactive)
SK-MEL-28
  GI50: > 100 µM (inactive)
OVCAR-4
  GI50: > 100 µM (inactive)
Hs-578T
  GI50: > 100 µM (inactive)
CAKI-1
  GI50: > 100 µM (inactive)
MDA-N
  GI50: > 100 µM (inactive)
MDA-MB-435
  GI50: > 100 µM (inactive)
ACHN
  GI50: > 100 µM (inactive)
LOX IMVI
  GI50: > 100 µM (inactive)
SF-539
  GI50: > 100 µM (inactive)
SK-MEL-5
  GI50: 85.1 µM (inactive)
SF-295
  GI50: > 100 µM (inactive)
Malme-3M
  GI50: > 100 µM (inactive)
SF-268
  GI50: > 100 µM (inactive)

## Oc1nc(S)nc2c1C(c1ccc(Cl)cc1)c1c(O)nc(S)nc1O2
NCI-H522
  GI50: > 100 µM (inactive)
NCI-H226
  GI50: > 100 µM (inactive)
U-251
  GI50: > 100 µM (inactive)
SW-620
  GI50: > 100 µM (inactive)
TK-10
  GI50: > 100 µM (inactive)
COLO 205
  GI50: > 100 µM (inactive)
786-0
  GI50: > 100 µM (inactive)
HCT-15
  GI50: > 100 µM
A549
  GI50: > 100 µM (inactive)
UACC-257
  GI50: > 100 µM (inactive)
MCF7
  GI50: > 100 µM (inactive)
BT-549
  GI50: > 100 µM (inactive)
HL-60
  GI50: > 100 µM (inactive)
PC-3
  GI50: > 100 µM (inactive)
SN12C
  GI50: > 100 µM (inactive)
HT-29
  GI50: > 100 µM (inactive)
NCI-H23
  GI50: > 100 µM (inactive)
DU-145
  GI50: > 100 µM (inactive)
OVCAR-5
  GI50: > 100 µM (inactive)
RPMI-8226
  GI50: > 100 µM (inactive)
OVCAR-3
  GI50: > 100 µM (inactive)
NCI/ADR-RES
  GI50: > 100 µM (inactive)
IGROV-1
  GI50: > 100 µM (inactive)
HOP-62
  GI50: > 100 µM (inactive)
K562
  GI50: > 100 µM (inactive)
KM12
  GI50: > 100 µM (inactive)
A498
  GI50: > 100 µM (inactive)
SK-MEL-28
  GI50: > 100 µM (inactive)
OVCAR-4
  GI50: > 100 µM (inactive)
UACC-62
  GI50: > 100 µM (inactive)
Hs-578T
  GI50: > 100 µM (inactive)
MOLT-4
  GI50: > 100 µM (inactive)
CAKI-1
  GI50: 25.8 µM (inactive)
MDA-N
  GI50: > 100 µM (inactive)
MDA-MB-435
  GI50: > 100 µM (inactive)
ACHN
  GI50: > 100 µM (inactive)
LOX IMVI
  GI50: > 100 µM (inactive)
RXF 393
  GI50: 0.514 µM (active)
OVCAR-8
  GI50: > 100 µM (inactive)
SK-MEL-5
  GI50: > 100 µM (inactive)
SNB-19
  GI50: > 100 µM (inactive)
SF-295
  GI50: > 100 µM (inactive)
SK-MEL-2
  GI50: > 100 µM (inactive)
M14
  GI50: > 100 µM (inactive)
UO-31
  GI50: > 100 µM (inactive)
Malme-3M
  GI50: > 100 µM (inactive)
HOP-92
  GI50: > 100 µM (inactive)
SF-268
  GI50: 25.7 µM (inactive)
CCRF-CEM
  GI50: > 100 µM (inactive)
HCT-116
  GI50: > 100 µM (inactive)
MDA-MB-231
  GI50: > 100 µM (inactive)
NCI-H460
  GI50: > 100 µM (inactive)
EKVX
  GI50: > 100 µM (inactive)

## CSC(SC)=C1C(=O)N(c2ccccc2)N=C1C
HCC 2998
  GI50: 46.6 µM (inactive)
NCI-H522
  GI50: 17.5 µM (inactive)
NCI-H226
  GI50: 30.3 µM (inactive)
U-251
  GI50: 35.1 µM (inactive)
SW-620
  GI50: 32 µM (inactive)
SNB-75
  GI50: 21.2 µM (inactive)
TK-10
  GI50: 22.1 µM (inactive)
COLO 205
  GI50: 19.9 µM (inactive)
786-0
  GI50: 23.2 µM (inactive)
HCT-15
  GI50: 24.1 µM
A549
  GI50: 30.8 µM (inactive)
UACC-257
  GI50: 27.4 µM (inactive)
MCF7
  GI50: 17.3 µM (inactive)
BT-549
  GI50: 21.6 µM (inactive)
PC-3
  GI50: 28.1 µM (inactive)
SN12C
  GI50: 30.7 µM (inactive)
HT-29
  GI50: 35.8 µM (inactive)
OVCAR-5
  GI50: 29.5 µM (inactive)
NCI/ADR-RES
  GI50: 31.2 µM (inactive)
IGROV-1
  GI50: 29.3 µM (inactive)
HOP-62
  GI50: 35.4 µM (inactive)
K562
  GI50: 27.1 µM (inactive)
KM12
  GI50: 41.1 µM (inactive)
A498
  GI50: 29.4 µM (inactive)
OVCAR-4
  GI50: 34.3 µM (inactive)
UACC-62
  GI50: 27 µM (inactive)
Hs-578T
  GI50: 88.1 µM (inactive)
MOLT-4
  GI50: 21.7 µM (inactive)
CAKI-1
  GI50: 29 µM (inactive)
SK-OV-3
  GI50: 29.2 µM (inactive)
MDA-N
  GI50: 34.8 µM (inactive)
ACHN
  GI50: 27.4 µM (inactive)
LOX IMVI
  GI50: 34 µM (inactive)
SF-539
  GI50: 36.7 µM (inactive)
RXF 393
  GI50: 25 µM (inactive)
OVCAR-8
  GI50: 33.8 µM (inactive)
SK-MEL-5
  GI50: 10.3 µM (inactive)
SNB-19
  GI50: 30.9 µM (inactive)
SF-295
  GI50: 25.9 µM (inactive)
SK-MEL-2
  GI50: 20 µM (inactive)
M14
  GI50: 20.6 µM (inactive)
Malme-3M
  GI50: 21.7 µM (inactive)
HOP-92
  GI50: 2.75 µM (inactive)
SF-268
  GI50: 61.1 µM (inactive)
CCRF-CEM
  GI50: 18.5 µM (inactive)
HCT-116
  GI50: 22.9 µM (inactive)
MDA-MB-231
  GI50: 33.8 µM (inactive)
NCI-H460
  GI50: 23.9 µM (inactive)
EKVX
  GI50: 24 µM (inactive)
